Like-named read-outs stand apart in the source and are kept apart here.
Experiments:
PfCRT^3D7 [1] = biological target: T1, PfCRT^3D7 (Plasmodium falciparum, UniProt Q8IBZ9); test: cell-based; type: cell-based; conditions: total [3H]CQ transport; for inhibition at 500 µM: [test solute] = 0.5 mM; for inhibition at 1000 µM: [test solute] = 1 mM; for inhibition at 2000 µM: [test solute] = 2 mM
How it was run: (§1)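 ND96, pH 5.5, 1.5 h, 27.5 °C; uptake direction acidic outside → oocyte cytosol, mimicking efflux from digestive vacuole. Ice-cold wash stop, 10% SDS lysis, scintillation counting. Ten oocytes/treatment, ≥4 independent experiments.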

PfCRT^Dd2 [2] = biological target: T2, PfCRT^Dd2 (Plasmodium falciparum, UniProt Q9N623, A220S/I356T/K76T/M74I/N326S/N75E/Q271E/R371I); test: [3H]CQ uptake into Xenopus oocytes, cis-inhibition by unlabelled solute; type: cell-based
T2 sequence (Q9N623 whole entry A220S/I356T/K76T/M74I/N326S/N75E/Q271E/R371I): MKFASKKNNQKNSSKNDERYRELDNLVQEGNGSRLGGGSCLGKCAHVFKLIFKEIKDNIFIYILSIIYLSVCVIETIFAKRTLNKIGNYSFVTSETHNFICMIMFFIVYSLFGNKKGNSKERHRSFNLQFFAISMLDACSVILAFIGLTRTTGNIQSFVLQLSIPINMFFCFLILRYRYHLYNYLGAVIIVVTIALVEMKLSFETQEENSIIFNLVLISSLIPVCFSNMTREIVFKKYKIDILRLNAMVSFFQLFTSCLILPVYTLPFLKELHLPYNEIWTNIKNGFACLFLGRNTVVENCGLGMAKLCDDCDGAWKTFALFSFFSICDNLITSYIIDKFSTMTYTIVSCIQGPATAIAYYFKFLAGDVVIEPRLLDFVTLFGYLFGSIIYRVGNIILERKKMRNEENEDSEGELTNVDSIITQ
How it was run: as §1

PfCRT^Ecu1110 [3] = biological target: T3, PfCRT^Ecu1110 (Plasmodium falciparum, UniProt Q9N623, A220S/I356L/K76T/N326D); test: as above; type: cell-based
T3 sequence (Q9N623 whole entry A220S/I356L/K76T/N326D): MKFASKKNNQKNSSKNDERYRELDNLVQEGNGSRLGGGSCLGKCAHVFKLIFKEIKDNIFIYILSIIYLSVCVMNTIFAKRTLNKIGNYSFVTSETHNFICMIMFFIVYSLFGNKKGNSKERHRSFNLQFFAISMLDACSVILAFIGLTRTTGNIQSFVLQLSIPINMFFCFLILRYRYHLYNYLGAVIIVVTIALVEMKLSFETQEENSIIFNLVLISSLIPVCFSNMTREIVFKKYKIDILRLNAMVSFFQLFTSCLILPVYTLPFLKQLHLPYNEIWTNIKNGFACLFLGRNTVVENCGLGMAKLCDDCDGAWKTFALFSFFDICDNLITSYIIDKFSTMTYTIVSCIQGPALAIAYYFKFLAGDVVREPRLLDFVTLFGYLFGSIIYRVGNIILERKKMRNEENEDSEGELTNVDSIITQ
How it was run: as §1

non-expressing oocytes [4] = type: cell-based, Xenopus laevis; conditions: total [3H]CQ transport; for Uptake of [3H]CQ (% non-expressing oocyte control), trans-stimulation: non-expressing oocytes, normalised to the oocyte type control; for Uptake of [3H]CQ (% PfCRTDd2 control), trans-stimulation, non-expressing oocytes: mean ± SEM, SEM
How it was run: (§2)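 Oocytes (ten per treatment, ≥4 independent frogs/days) were preloaded by injecting VF-6 in 25 nL ND96 at pH 5.0, 5.5, 6.0 or 7.0, or Na^+-free choline buffer, then uptake run 1.5 h, 27.5 °C, ND96 pH 5.5 by default. Internal concentrations assumed ~400 nL oocyte volume.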

non-expressing oocytes [5] = test: cells; type: cell-based, Xenopus laevis; conditions: Xenopus laevis, total [3H]CQ transport; for inhibition at 500 µM: [test solute] = 0.5 mM; for inhibition at 1000 µM: [test solute] = 1 mM; for inhibition at 2000 µM: [test solute] = 2 mM
How it was run: as §1

PfCRT [6] = test: Influx of VF-6 via PfCRT into the oocyte, solutes tested as potential co-substrates; type: cell-based, Plasmodium falciparum; set-up: key: X: Compounds that have been tested as potential co-substrates but are not required for influx of VF-6 via PfCRT into the oocyte; conditions: X marks the solute
PfCRT [7] = test: Test of solutes as potential co-substrates for influx of VF-6 via PfCRT into the oocyte; type: cell-based, Plasmodium falciparum; set-up: key: X: Compounds that have been tested as potential co-substrates but are not required for influx of VF-6 via PfCRT into the oocyte; conditions: X = tested
PfCRT^Dd2 [8] = biological target: T2, PfCRT^Dd2; test: cell-based; type: cell-based; conditions: […]; for activity at 45000 µM: [test solute]i = 45 mM (30 mM for some solutes due to solubility)
How it was run: as §2

PfCRT^Ecu1110 [9] = biological target: T3, PfCRT^Ecu1110; test: cell-based; type: cell-based; conditions: […]
How it was run: as §2

PfCRT^3D7 [10] = biological target: T1, PfCRT^3D7; test: cell-based; type: cell-based
How it was run: as §2

PfNT1 = biological target: T4, PfNT1 (Plasmodium falciparum, UniProt Q8IDM6); test: cell-based; type: cell-based; conditions: for activity at 5000 µM: total [3H]CQ transport
T4 construct: expressed in transfected cells; host or cells: Xenopus laevis oocytes (stage V-VI), cRNA-injected
T4 sequence (Q8IDM6 whole entry): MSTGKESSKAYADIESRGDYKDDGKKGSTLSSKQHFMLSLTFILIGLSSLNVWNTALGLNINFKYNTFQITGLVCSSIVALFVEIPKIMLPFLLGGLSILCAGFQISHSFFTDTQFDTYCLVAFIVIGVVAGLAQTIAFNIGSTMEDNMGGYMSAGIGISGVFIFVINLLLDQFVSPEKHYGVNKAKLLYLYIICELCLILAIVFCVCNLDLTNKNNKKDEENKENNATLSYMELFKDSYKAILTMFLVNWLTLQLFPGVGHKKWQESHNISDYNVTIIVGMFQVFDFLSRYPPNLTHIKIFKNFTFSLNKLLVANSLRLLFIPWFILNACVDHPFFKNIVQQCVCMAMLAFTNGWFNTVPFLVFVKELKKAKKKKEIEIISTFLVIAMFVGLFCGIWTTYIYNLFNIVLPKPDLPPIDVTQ
How it was run: as §2

[11] = PfCRT3D7 oocytes, normalised to the oocyte type control, read-out: Uptake of [3H]CQ (% PfCRT3D7 control), cis-inhibition
[12] = mean ± SEM, SEM, read-out: Uptake of [3H]CQ (% PfCRTDd2 control), cis-inhibition, PfCRT3D7
[13] = read-out: PfCRT-mediated [3H]CQ transport, cis-inhibition (% PfCRTDd2 control)
[14] = read-out: Uptake of [3H]CQ (% PfCRTDd2 control), cis-inhibition, PfCRTDd2, SEM
[15] = read-out: PfCRT-mediated [3H]CQ transport, cis-inhibition (% PfCRTEcu1110 control)
[16] = read-out: Uptake of [3H]CQ (% PfCRTDd2 control), cis-inhibition, PfCRTEcu1110, SEM
[17] = read-out: Uptake of [3H]CQ (% PfCRTEcu1110 control), cis-inhibition
[18] = read-out: [3H]CQ transport (% PfCRTEcu1110 control), cis-inhibition, PfCRTEcu1110, SEM
[19] = Oocyte, mean ± SEM, SEM, read-out: Uptake of [3H]CQ (% PfCRTDd2 control), cis-inhibition, non-expressing oocytes
[20] = non-expressing oocytes, normalised to the oocyte type control, read-out: Uptake of [3H]CQ (% non-expressing oocyte control), cis-inhibition

T1 sequence (Q8IBZ9 59-398): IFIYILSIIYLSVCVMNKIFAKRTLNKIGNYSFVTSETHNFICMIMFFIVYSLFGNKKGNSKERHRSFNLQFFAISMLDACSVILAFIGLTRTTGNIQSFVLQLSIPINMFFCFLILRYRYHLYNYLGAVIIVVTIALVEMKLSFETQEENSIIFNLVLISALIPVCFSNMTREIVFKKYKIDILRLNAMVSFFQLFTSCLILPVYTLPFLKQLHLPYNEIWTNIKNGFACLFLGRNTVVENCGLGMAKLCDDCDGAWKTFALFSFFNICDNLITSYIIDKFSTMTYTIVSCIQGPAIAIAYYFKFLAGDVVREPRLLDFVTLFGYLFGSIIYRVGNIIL

Structure (SMILES): N[C@@H](Cc1ccccc1)C(=O)O [L-phenylalanine]
- inhibition at 500 µM (PfCRT^3D7 [1]; [11]): 99 ± 4.3%
- inhibition at 1000 µM (PfCRT^3D7 [1]; [11]): 99 ± 5.2%
- inhibition at 2000 µM (PfCRT^3D7 [1]; [11]): 100 ± 3.6%
- inhibition at 500 µM (PfCRT^3D7 [1]; [12]): 3.1 ± 0.06%
- inhibition at 1000 µM (PfCRT^3D7 [1]; [12]): 3.1 ± 0.06%
- inhibition at 2000 µM (PfCRT^3D7 [1]; [12]): 3.1 ± 0.07%
- inhibition at 500 µM (PfCRT^Dd2 [2]; [13]): 94 ± 2.7%
- inhibition at 1000 µM (PfCRT^Dd2 [2]; [13]): 95 ± 2.7%
- inhibition at 500 µM (PfCRT^Dd2 [2]; [14]): 96 ± 3.6%
- inhibition at 1000 µM (PfCRT^Dd2 [2]; [14]): 97 ± 3.3%
- inhibition at 2000 µM (PfCRT^Dd2 [2]; [14]): 98 ± 2.2%
- inhibition at 500 µM (PfCRT^Ecu1110 [3]; [15]): 95 ± 3.6%
- inhibition at 1000 µM (PfCRT^Ecu1110 [3]; [15]): 95 ± 0.3%
- inhibition at 500 µM (PfCRT^Ecu1110 [3]; [16]): 32 ± 2.5%
- inhibition at 1000 µM (PfCRT^Ecu1110 [3]; [16]): 32 ± 1.5%
- inhibition at 2000 µM (PfCRT^Ecu1110 [3]; [16]): 32 ± 1.5%
- inhibition at 500 µM (PfCRT^Ecu1110 [3]; [17]): 97 ± 2.1%
- inhibition at 1000 µM (PfCRT^Ecu1110 [3]; [17]): 96 ± 1.8%
- inhibition at 2000 µM (PfCRT^Ecu1110 [3]; [17]): 98 ± 2.4%
- inhibition at 500 µM (PfCRT^Ecu1110 [3]; [18]): 29 ± 0.7%
- inhibition at 1000 µM (PfCRT^Ecu1110 [3]; [18]): 29 ± 1.7%
- inhibition at 2000 µM (PfCRT^Ecu1110 [3]; [18]): 29 ± 0.5%
- Uptake of [3H]CQ (% non-expressing oocyte control), trans-stimulation (non-expressing oocytes [4]; [test solute]i = 5 mM): 98 ± 2.6 % non-expressing oocyte control
- Uptake of [3H]CQ (% non-expressing oocyte control), trans-stimulation (non-expressing oocytes [4]; [test solute]i = 45 mM (30 mM for some solutes due to solubility)): 99 ± 2.7 % non-expressing oocyte control
- Uptake of [3H]CQ (% PfCRTDd2 control), trans-stimulation, non-expressing oocytes (non-expressing oocytes [4]; [test solute]i = 5 mM (intracellular)): 2.4 ± 0.03 % PfCRTDd2 control
- Uptake of [3H]CQ (% PfCRTDd2 control), trans-stimulation, non-expressing oocytes (non-expressing oocytes [4]; [test solute]i = 45 mM (intracellular; 30 mM for some solutes due to solubility)): 2.2 ± 0.09 % PfCRTDd2 control
- inhibition at 500 µM (non-expressing oocytes [5]; [19]): 3 ± 0.06%
- inhibition at 1000 µM (non-expressing oocytes [5]; [19]): 2.7 ± 0.04%
- inhibition at 2000 µM (non-expressing oocytes [5]; [19]): 2.3 ± 0.1%
- inhibition at 500 µM (non-expressing oocytes [5]; [20]): 98 ± 6.3%
- inhibition at 1000 µM (non-expressing oocytes [5]; [20]): 100 ± 4.6%
- inhibition at 2000 µM (non-expressing oocytes [5]; [20]): 99 ± 3.2%
- Compounds that have been tested as potential co-substrates but are not required for influx of VF-6 via PfCRT into the oocyte (PfCRT [6]): X
- Tested as potential co-substrate but not required for influx of VF-6 via PfCRT into the oocyte (PfCRT [7]): X
- activity at 5000 µM (PfCRT^Dd2 [8]; pH 5.5, read-out: PfCRT-mediated [3H]CQ transport, trans-stimulation (% PfCRTDd2 control), [test solute]i = 5 mM (intracellular), PfCRTDd2 oocytes, normalised to oocyte type control): 99 ± 3.9%
- activity at 5000 µM (PfCRT^Dd2 [8]; pH 5.5, read-out: Uptake of [3H]CQ (% PfCRTDd2 control), trans-stimulation, PfCRTDd2, total [3H]CQ transport, [test solute]i = 5 mM (intracellular), mean ± SEM, SEM): 101 ± 2.4%
- activity at 5000 µM (PfCRT^Dd2 [8]; pH 5.5, read-out: Uptake of [3H]CQ (% PfCRTDd2 control), trans-stimulation, PfCRTDd2 oocytes, [test solute]i = 5 mM, total [3H]CQ transport, normalised to the oocyte type control): 101 ± 2.4%
- activity at 45000 µM (PfCRT^Dd2 [8]; pH 5.5, read-out: Uptake of [3H]CQ (% PfCRTDd2 control), trans-stimulation, PfCRTDd2 oocytes, total [3H]CQ transport, normalised to the oocyte type control): 100 ± 2.2%
- activity at 5000 µM (PfCRT^Dd2 [8]; pH 5.5, read-out: [3H]CQ transport (% PfCRTDd2 control), trans-stimulation, PfCRTDd2, trans-stimulation, [test solute]i = 5 mM (injected), PfCRT-mediated component (background subtracted), mean ± SEM, SEM): 99 ± 3.9%
- activity at 45000 µM (PfCRT^Dd2 [8]; pH 5.5, read-out: [3H]CQ transport (% PfCRTDd2 control), trans-stimulation, PfCRTDd2, trans-stimulation, PfCRT-mediated component (background subtracted), mean ± SEM, SEM): 98 ± 3%
- activity at 5000 µM (PfCRT^Ecu1110 [9]; pH 5.5, read-out: PfCRT-mediated [3H]CQ transport, trans-stimulation (% PfCRTEcu1110 control), [test solute]i = 5 mM (intracellular), PfCRTEcu1110 oocytes, normalised to oocyte type control): 96 ± 1.9%
- activity at 5000 µM (PfCRT^Ecu1110 [9]; pH 5.5, read-out: Uptake of [3H]CQ (% PfCRTEcu1110 control), trans-stimulation, PfCRTEcu1110 oocytes, [test solute]i = 5 mM, total [3H]CQ transport, normalised to the oocyte type control): 98 ± 3.4%
- activity at 45000 µM (PfCRT^Ecu1110 [9]; pH 5.5, read-out: Uptake of [3H]CQ (% PfCRTEcu1110 control), trans-stimulation, PfCRTEcu1110 oocytes, [test solute]i = 45 mM (30 mM for some solutes due to solubility), total [3H]CQ transport, normalised to the oocyte type control): 101 ± 3.2%
- activity at 5000 µM (PfCRT^Ecu1110 [9]; read-out: Uptake of [3H]CQ (% PfCRTDd2 control), trans-stimulation, PfCRTEcu1110, total [3H]CQ transport, [test solute]i = 5 mM (intracellular), mean ± SEM, SEM): 35 ± 1.3%
- activity at 45000 µM (PfCRT^Ecu1110 [9]; read-out: Uptake of [3H]CQ (% PfCRTDd2 control), trans-stimulation, PfCRTEcu1110, total [3H]CQ transport, [test solute]i = 45 mM (intracellular; 30 mM for some solutes due to solubility), mean ± SEM, SEM): 36 ± 1.7%
- activity at 5000 µM (PfCRT^3D7 [10]; PfCRT3D7 oocytes, [test solute]i = 5 mM, total [3H]CQ transport, normalised to the oocyte type control, read-out: Uptake of [3H]CQ (% PfCRT3D7 control), trans-stimulation): 98 ± 3.3%
- [3H]CQ transport (% PfCRT3D7 control), trans-stimulation, PfCRT3D7 (PfCRT^3D7 [10]; SEM): 0.3 ± 0.01 % PfCRT3D7 control
- activity at 5000 µM (PfCRT^3D7 [10]; [test solute]i = 5 mM (intracellular), PfCRT3D7 oocytes, normalised to oocyte type control, read-out: PfCRT-mediated [3H]CQ transport, trans-stimulation (% PfCRT3D7 control)): 96 ± 2.8%
- activity at 45000 µM (PfCRT^3D7 [10]; SEM, read-out: Uptake of [3H]CQ (% PfCRTDd2 control), trans-stimulation, PfCRT3D7): 3.3 ± 0.05%
- activity at 45000 µM (PfCRT^3D7 [10]; read-out: PfCRT-mediated [3H]CQ transport, trans-stimulation (% PfCRT3D7 control)): 96 ± 2.1%
- activity at 45000 µM (PfCRT^3D7 [10]; read-out: Uptake of [3H]CQ (% PfCRT3D7 control), trans-stimulation): 98 ± 3%
- activity at 5000 µM (PfCRT^3D7 [10]; total [3H]CQ transport, [test solute]i = 5 mM (intracellular), mean ± SEM, SEM, read-out: Uptake of [3H]CQ (% PfCRTDd2 control), trans-stimulation, PfCRT3D7): 3.3 ± 0.01%
- activity at 5000 µM (PfNT1; PfNT1 oocytes, [test solute]i = 5 mM, normalised to the oocyte type control, read-out: Uptake of [3H]CQ (% PfNT1 control), trans-stimulation): 99 ± 2.2%
- activity at 45000 µM (PfNT1; SEM, read-out: Uptake of [3H]CQ (% PfCRTDd2 control), trans-stimulation, PfNT1): 2.8 ± 0.07%
- activity at 45000 µM (PfNT1; read-out: Uptake of [3H]CQ (% PfNT1 control), trans-stimulation): 100 ± 2.5%
- activity at 5000 µM (PfNT1; [test solute]i = 5 mM (intracellular), mean ± SEM, SEM, read-out: Uptake of [3H]CQ (% PfCRTDd2 control), trans-stimulation, PfNT1): 3 ± 0.01%

— article PMC7413254 (Nature Communications, 2020)
